From ChEMBL document CHEMBL1121992, “Synthesis and topical antiinflammatory activity of some steroidal [16 alpha, 17 alpha-d]Isoxazolidines” (1982)

test system: Mus musculus; test: Topical antiinflammatory activity in mice, expressed as potency was determined; format: functional

SMILES	Potency
CC(=O)OCC(=O)[C@@]12ON(Cc3ccccc3)C[C@@H]1CC1C3CCC4=CC(=O)C=CC4(C)[C@H]3C(O)CC12C (some centres not stated)	69
CC(=O)OCC(=O)[C@@]12OC(C)(C)O[C@@H]1CC1C3CCC4=CC(=O)C=CC4(C)[C@H]3C(O)CC12C (some centres not stated)	102
CC(=O)OCC(=O)[C@@]12N=C(C)O[C@@H]1CC1C3CCC4=CC(=O)C=CC4(C)[C@@]3(F)C(O)CC12C (some centres not stated)	104
CC(=O)OCC(=O)[C@@]12ON(Cc3ccccc3)C[C@@H]1CC1C3CCC4=CC(=O)C=CC4(C)[C@@]3(F)C(O)CC12C (some centres not stated)	62
CC(=O)OCC(=O)[C@@]12OC(C)(C)O[C@@H]1CC1C3CCC4=CC(=O)C=CC4(C)[C@@]3(F)C(O)CC12C (some centres not stated)	117
CC(=O)OCC(=O)[C@@]12ON(C)C[C@@H]1CC1C3CCC4=CC(=O)C=CC4(C)[C@H]3C(O)CC12C (some centres not stated)	75
CC(=O)OCC(=O)[C@@]12ON(C)C[C@@H]1CC1C3CCC4=CC(=O)C=CC4(C)[C@@]3(F)C(O)CC12C (some centres not stated)	156
